For 8 compounds, TGI results are on record in PubChem BioAssay (NCI).

Assay in all cases: NCI tumour cell line growth inhibition, 48 h
Assay [1] has as its system OVCAR-4 ovarian.
Assay [2] deals with COLO 205 colon.
Assay [3] concerns UACC-62 melanoma.
Assay [4] relates to TK-10 renal.
The test system of assay [5] is NCI-H522 lung.
Assay [6] has as its system SF-268 CNS.
The test system of assay [7] is SK-MEL-2 melanoma.
Assay [8] deals with U251 CNS.
In assay [9] the test system is HCT-116 colon.
The test system of assay [10] is HS 578T breast.
Assay [11] deals with NCI-H460 lung.
Assay [12] concerns HOP-62 NSCLC.
Assay [13] deals with A498 renal.

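Following 48 hours of exposure in 96-well plates, responses at five concentrations were used to interpolate endpoints linearly. At the TGI there is no net growth.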

Turning to `O=C(C1OC1c1ccc([N+](=O)[O-])cc1)C12CC3CC(CC(C3)C1)C2` (centres undefined), the TGI stood at 38.9 µM in [1]; 35.4 µM in [2]; 28.9 µM in assay [3]; 33.3 µM in assay [4]; 54 µM in assay [5]; 40.8 µM in assay [6]. Besides, the TGI in assay [7] turned out to be 39.1 µM; in [8], 24.6 µM; in [9], 22 µM; in assay [10] it was 50.3 µM; in assay [11], 28.5 µM; in assay [12], 56.3 µM. This compound registered a TGI in assay [13] of 35.7 µM.
For `Cc1cccc2c1C(=O)C(C1OC(=O)c3ccccc31)C2` (centres undefined), the TGI in [1], in assay [2], in [3], in [4], in [5] and in assay [6] was above 100 µM each time. Besides, the TGI in [7], in assay [8], in assay [9], in assay [10], in assay [11] and in assay [12] was above 100 µM throughout. In [13], the TGI was above 100 µM.
As to `C#CCOC(=O)c1ccccc1OC(C)=O`, the TGI in assay [1], in assay [2], in assay [3], in assay [4], in assay [5] and in [6] was above 100 µM in each case. For the same compound, the TGI in [7], in [8], in assay [9], in [10], in assay [11] and in assay [12] was above 100 µM in each case. Moreover, the TGI in assay [13] was above 100 µM.
As to `O=C(O)c1ccccc1/C=N\NC1=NCCN1`, the TGI in [1], in assay [2], in assay [3], in assay [4], in assay [5] and in [6] was above 100 µM throughout. Moreover, the TGI in assay [7], in assay [8], in assay [9], in assay [10], in assay [11] and in assay [12] was above 100 µM each time. In assay [13], this compound registered a TGI above 100 µM.
For the compound `C[C@@H]1OC(=O)C[C@H]2CC(=O)N(CCc3cn(S(=O)(=O)C(F)(F)F)c4ccccc34)C[C@@H]21`, the TGI in [1], in assay [2], in [3], in assay [4], in assay [5] and in assay [6] was above 100 µM each time. The TGI in assay [7], in assay [8], in assay [9], in assay [10], in [11] and in assay [12] was above 100 µM throughout. The same compound had a TGI in assay [13] above 100 µM.
For `N#Cc1c(NC(=S)NCc2ccccc2)sc2c1CCN(N1CCc3c(sc(NC(=S)NCc4ccccc4)c3C#N)C1)C2`, the TGI in assay [1], in [2], in assay [3], in assay [4], in [5] and in [6] was above 100 µM in each case. The TGI in [7], in assay [8], in assay [9], in assay [10], in assay [11] and in assay [12] was above 100 µM in each case. In [13], this compound displayed a TGI above 100 µM.
As for `C[C@@H]1CCC2[C@@H](C)C(=O)O[C@@H]3C4C[C@@H]1[C@@]23OO[C@@]4(C)O` (some centres undefined), the TGI in assay [1], in assay [2], in [3], in assay [4], in assay [5] and in [6] was above 100 µM each time. Besides, the TGI in assay [7], in assay [8], in assay [9], in assay [10], in assay [11] and in assay [12] was above 100 µM throughout. Further, the TGI in assay [13] is above 100 µM.
In the case of `Nc1c(C(=O)c2ccccc2)[nH]c(NCc2ccccc2)c1C(=S)Nc1ccccc1`, the TGI in assay [1], in assay [2], in assay [3], in [4], in [5] and in assay [6] was above 100 µM throughout. The TGI in assay [7], in [8], in assay [9], in [10], in [11] and in assay [12] was above 100 µM in each case. The compound further returned a TGI in assay [13] above 100 µM.
